Measurements: PubChem BioAssay (NCI)
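Tested at 5 concentrations; 48 h exposure; 96-well plates; endpoints linearly interpolated, else capped at highest concentration. TGI denotes the concentration required for complete inhibition of growth.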

Tests used:
Assay in all cases: inhibition of tumour cell growth, NCI panel, 48 h
[1] = system: IGROV1 ovarian
[2] = system: M19-MEL melanoma
[3] = system: SN12C renal
[4] = system: NCI-H522 lung
[5] = system: MALME-3M melanoma
[6] = system: HCC-2998 colon
[7] = system: EKVX NSCLC
[8] = system: SR leukemia
[9] = system: OVCAR-8 ovarian
[10] = system: SF-539 CNS
[11] = system: RPMI-8226 leukemia
[12] = system: HCT-15 colon
[13] = system: SNB-75 CNS
[14] = system: UACC-257 melanoma
[15] = system: OVCAR-3 ovarian
[16] = system: UO-31 renal
[17] = system: MOLT-4 leukemia
[18] = system: SNB-19 CNS
[19] = system: DMS 114 small cell lung
[20] = system: NCI-H23 lung
[21] = system: COLO 205 colon
[22] = system: DLD-1 colon
[23] = system: XF 498 CNS
[24] = system: HL-60(TB) leukemia
[25] = system: SW-620 colon
[26] = system: HOP-62 NSCLC
[27] = system: SF-295 CNS
[28] = system: LOX IMVI melanoma
[29] = system: 786-0 renal
[30] = system: SNB-78 CNS
[31] = system: SK-MEL-28 melanoma
[32] = system: SF-268 CNS
[33] = system: K-562 leukemia
[34] = system: UACC-62 melanoma
[35] = system: CCRF-CEM leukemia
[36] = system: DMS 273 small cell lung
[37] = system: SK-MEL-2 melanoma
[38] = system: SK-MEL-5 melanoma
[39] = system: SK-OV-3 ovarian
[40] = system: OVCAR-5 ovarian
[41] = system: NCI-H460 lung
[42] = system: NCI-H226 lung
[43] = system: OVCAR-4 ovarian
[44] = system: LXFL 529 NSCLC
[45] = system: M14 melanoma
[46] = system: A549 NSCLC
[47] = system: HT29 colon
[48] = system: U251 CNS
[49] = system: RXF 393 renal
[50] = system: KM12 colon
[51] = system: ACHN renal
[52] = system: A498 renal
[53] = system: HOP-92 NSCLC
[54] = system: TK-10 renal
[55] = system: KM20L2 colon
[56] = system: HCT-116 colon
[57] = system: CAKI-1 renal

CCOC(=O)C1Oc2ccc([N+](=O)[O-])cc2C1(C)O (configuration not stated)
TGI [1]: > 100 µM
TGI [2]: > 100 µM
TGI [3]: > 100 µM
TGI [4]: > 100 µM
TGI [5]: > 100 µM
TGI [6]: > 100 µM
TGI [7]: > 100 µM
TGI [8]: > 100 µM
TGI [9]: > 100 µM
TGI [10]: > 100 µM
TGI [11]: > 100 µM
TGI [12]: > 100 µM
TGI [13]: > 100 µM
TGI [14]: > 100 µM
TGI [15]: > 100 µM
TGI [16]: > 100 µM
TGI [17]: > 100 µM
TGI [18]: > 100 µM
TGI [19]: > 100 µM
TGI [20]: > 100 µM
TGI [21]: > 100 µM
TGI [22]: > 100 µM
TGI [23]: > 100 µM
TGI [24]: > 100 µM
TGI [25]: > 100 µM
TGI [26]: > 100 µM
TGI [27]: > 100 µM
TGI [28]: > 100 µM
TGI [29]: > 100 µM
TGI [30]: > 100 µM
TGI [31]: > 100 µM
TGI [32]: > 100 µM
TGI [33]: > 100 µM
TGI [34]: > 100 µM
TGI [35]: > 100 µM
TGI [36]: > 100 µM
TGI [37]: > 100 µM
TGI [38]: > 100 µM
TGI [39]: > 100 µM
TGI [40]: > 100 µM
TGI [41]: > 100 µM
TGI [42]: > 100 µM
TGI [43]: > 100 µM
TGI [44]: > 100 µM
TGI [45]: > 100 µM
TGI [46]: > 100 µM
TGI [47]: > 100 µM
TGI [48]: > 100 µM
TGI [49]: > 100 µM
TGI [50]: > 100 µM
TGI [51]: > 100 µM
TGI [52]: > 100 µM
TGI [53]: > 100 µM
TGI [54]: > 100 µM

CN(C)Cc1[nH]c2ccccc2c1C(=O)c1ccccc1
TGI [1]: > 100 µM
TGI [4]: > 100 µM
TGI [5]: > 100 µM
TGI [6]: > 100 µM
TGI [8]: > 100 µM
TGI [9]: > 100 µM
TGI [10]: > 100 µM
TGI [11]: > 100 µM
TGI [12]: > 100 µM
TGI [13]: 74.9 µM
TGI [14]: > 100 µM
TGI [15]: > 100 µM
TGI [16]: > 100 µM
TGI [17]: > 100 µM
TGI [18]: > 100 µM
TGI [20]: > 100 µM
TGI [21]: > 100 µM
TGI [22]: > 100 µM
TGI [23]: > 100 µM
TGI [24]: > 100 µM
TGI [25]: > 100 µM
TGI [26]: > 100 µM
TGI [27]: > 100 µM
TGI [55]: > 100 µM
TGI [29]: > 100 µM
TGI [31]: > 100 µM
TGI [32]: > 100 µM
TGI [56]: > 100 µM
TGI [33]: > 100 µM
TGI [34]: > 100 µM
TGI [35]: > 100 µM
TGI [36]: > 100 µM
TGI [37]: > 100 µM
TGI [38]: > 100 µM
TGI [57]: > 100 µM
TGI [40]: > 100 µM
TGI [41]: > 100 µM
TGI [42]: > 100 µM
TGI [43]: > 100 µM
TGI [44]: > 100 µM
TGI [45]: > 100 µM
TGI [46]: > 100 µM
TGI [47]: > 100 µM
TGI [48]: > 100 µM
TGI [50]: > 100 µM
TGI [51]: > 100 µM
TGI [53]: > 100 µM
TGI [54]: > 100 µM
